In PubChem BioAssay (NCI):
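Assay format: 96-well plates, 48-hour exposure. GI50 is the concentration that inhibits growth by half. TGI: total growth inhibition.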

Key:
Test in all cases: growth of human tumour cells (NCI), 48 h
[1] = system: SK-MEL-28 melanoma
[2] = system: U251 CNS
[3] = system: PC-3 prostate
[4] = system: T-47D breast
[5] = system: SNB-75 CNS
[6] = system: OVCAR-8 ovarian
[7] = system: RPMI-8226 leukemia
[8] = system: HCT-15 colon
[9] = system: M14 melanoma
[10] = system: SF-268 CNS
[11] = system: SNB-19 CNS
[12] = system: EKVX NSCLC
[13] = system: DU-145 prostate
[14] = system: HL-60(TB) leukemia
[15] = system: NCI-H522 lung
[16] = system: K-562 leukemia
[17] = system: A498 renal
[18] = system: MOLT-4 leukemia
[19] = system: HCC-2998 colon
[20] = system: CCRF-CEM leukemia
[21] = system: NCI-H460 lung
[22] = system: OVCAR-5 ovarian
[23] = system: CAKI-1 renal
[24] = system: MCF7 breast
[25] = system: HT29 colon
[26] = system: UACC-257 melanoma
[27] = system: SK-MEL-2 melanoma
[28] = system: BT-549 breast
[29] = system: HOP-62 NSCLC
[30] = system: UO-31 renal
[31] = system: SW-620 colon
[32] = system: MDA-MB-435
[33] = system: LOX IMVI melanoma
[34] = system: ACHN renal
[35] = system: COLO 205 colon
[36] = system: HS 578T breast
[37] = system: SR leukemia
[38] = system: IGROV1 ovarian
[39] = system: OVCAR-4 ovarian
[40] = system: SN12C renal
[41] = system: SK-MEL-5 melanoma
[42] = system: NCI-H226 lung
[43] = system: MDA-MB-231 breast
[44] = system: NCI-H23 lung
[45] = system: UACC-62 melanoma
[46] = system: A549 NSCLC
[47] = system: SF-539 CNS
[48] = system: RXF 393 renal
[49] = system: KM12 colon
[50] = system: 786-0 renal
[51] = system: HOP-92 NSCLC
[52] = system: OVCAR-3 ovarian
[53] = system: MALME-3M melanoma
[54] = system: HCT-116 colon
[55] = system: SF-295 CNS
[56] = system: NCI/ADR-RES ovarian
[57] = system: SK-OV-3 ovarian

`COc1ccc(-c2c(N)n[nH]c2-c2cc(OC)c(OC)c(OC)c2)cc1` gave a GI50 [1] of 5570 nM, a TGI [1] greater than 100000 nM and a GI50 [2] of 276 nM. It also gave a TGI [2] greater than 100000 nM, a GI50 [3] of 110 nM and a TGI [3] greater than 100000 nM. The GI50 [4] was 25300 nM, the TGI [4] was greater than 100000 nM and the GI50 [5] was 216 nM. The TGI [5] was greater than 100000 nM, the GI50 [6] was 424 nM and the TGI [6] was greater than 100000 nM. For the same molecule, the GI50 [7] was 331 nM, the TGI [7] was 22500 nM and the GI50 [8] was 285 nM. The TGI [8] was greater than 100000 nM, the GI50 [9] was 135 nM and the TGI [9] was greater than 100000 nM. For the same molecule, the GI50 [10] was 676 nM, the TGI [10] was greater than 48400 nM and the GI50 [11] was 403 nM. The TGI [11] was greater than 100000 nM, the GI50 [12] was 3860 nM and the TGI [12] was greater than 100000 nM. It also gave a GI50 [13] of 272 nM, a GI50 [14] of 47.4 nM and a TGI [14] of 516 nM. For the same molecule, the GI50 [15] was 223 nM, the TGI [15] was 24000 nM and the GI50 [16] was 43 nM. The TGI [16] was greater than 100000 nM, the GI50 [17] was 54.9 nM and the TGI [17] was 615 nM. It also gave a GI50 [18] of 275 nM, a TGI [18] greater than 100000 nM and a GI50 [19] of 286 nM. It also gave a TGI [19] of 19800 nM, a GI50 [20] of 238 nM and a TGI [20] greater than 100000 nM. For the same molecule, the GI50 [21] was 99.3 nM, the TGI [21] was 17200 nM and the GI50 [22] was 572 nM. For the same molecule, the TGI [22] was greater than 100000 nM, the GI50 [23] was 381 nM and the TGI [23] was greater than 100000 nM. It also gave a GI50 [24] of 73.2 nM, a TGI [24] greater than 100000 nM and a GI50 [25] of 247 nM. It also gave a TGI [25] of 3290 nM, a GI50 [26] of 23600 nM and a TGI [26] greater than 100000 nM. It also gave a GI50 [27] of 215 nM, a TGI [27] greater than 100000 nM and a GI50 [28] of 1410 nM. For the same molecule, the TGI [28] was greater than 29000 nM, the GI50 [29] was 387 nM and the TGI [29] was greater than 100000 nM. The GI50 [30] was 926 nM, the TGI [30] was greater than 68700 nM and the GI50 [31] was 58.7 nM. For the same molecule, the TGI [31] was greater than 100000 nM, the GI50 [32] was 26.2 nM and the TGI [32] was 90.7 nM. The GI50 [33] was 528 nM, the TGI [33] was greater than 100000 nM and the GI50 [34] was 2030 nM. The TGI [34] was greater than 100000 nM, the GI50 [35] was 363 nM and the GI50 [36] was 78.2 nM. The TGI [36] was 593 nM, the GI50 [37] was 30.8 nM and the TGI [37] was 29100 nM. For the same molecule, the GI50 [38] was 769 nM, the TGI [38] was 60500 nM and the GI50 [39] was 1620 nM. The TGI [39] was greater than 100000 nM, the GI50 [40] was 635 nM and the TGI [40] was greater than 100000 nM. It also gave a GI50 [41] of 113 nM, a TGI [41] of 10000 nM and a GI50 [42] of 644 nM. The TGI [42] was greater than 100000 nM, the GI50 [43] was 560 nM and the TGI [43] was greater than 100000 nM. It also gave a GI50 [44] of 250 nM, a TGI [44] of 43700 nM and a GI50 [45] of 140 nM. It also gave a TGI [45] greater than 100000 nM, a GI50 [46] of 147 nM and a TGI [46] greater than 100000 nM. The GI50 [47] was 202 nM, the TGI [47] was 865 nM and the GI50 [48] was 239 nM. For the same molecule, the TGI [48] was 740 nM, the GI50 [49] was 59.4 nM and the TGI [49] was 18000 nM. It also gave a GI50 [50] of 388 nM, a TGI [50] of 35600 nM and a GI50 [51] of 499 nM. It also gave a TGI [51] greater than 100000 nM, a GI50 [52] of 40 nM and a TGI [52] of 187 nM. It also gave a GI50 [53] of 22500 nM, a TGI [53] greater than 100000 nM and a GI50 [54] of 173 nM. It also gave a TGI [54] greater than 38800 nM, a GI50 [55] of 75.8 nM and a TGI [55] greater than 100000 nM. The GI50 [56] was 200 nM, the TGI [56] was 2220 nM and the GI50 [57] was 211 nM. The TGI [57] was 52400 nM.
